The test deals with T1, integrin α4β1 (Homo sapiens, UniProt P05556+P13612).
T1 construct: endogenous in cells; host or cells: Jurkat cells
Kind of test: Inhibition of α4β1-dependent cell adhesion (Jurkat cells to peptide CS-1). The format is cell-based. To be noted: adhesion of Jurkat cells to CS-1-coated plates; products preincubated with cells at 37° C. for 30 minutes; at least 6 product concentrations. The protocol:
Inhibition of α4β1-Dependent Cell Adhesion
Inhibition of α4β1-dependent cell adhesion was assayed by evaluating the interaction between the peptide CS-1 (H-CLHGPEILDVPST-CONH2) and Jurkat cells (T lymphocyte cell line expressing activated integrin α4β1 but not integrin α4β7) after preincubation of said cells with the compounds of formula I to be tested. The peptide CS-1 was synthesized by conventional solid phase chemistry and purified by HPLC. Its identity was determined by elemental analysis and mass spectroscopy.
1.—Preparation of CS-1-Coated Plates
96-black well plates (Costar 3925) were used. 200 μL of 2% bovine serum albumin solution (BSA, Sigma α4503) was added per well and the plate was incubated for 2 hours at 37° C. The solution was discarded and the plate was washed twice with 200 μL of phosphate buffered saline solution (PBS, Gibco 14190-094) per well. Then, 200 μL of 10 μg/mL N-succinimidyl 3-(2-pyridyldithio)propionate solution (SPDP, Sigma P-3415) was added per well, and the plate was incubated at 37° C. for 30 minutes. The remaining solution was discarded and the plate was twice washed with 200 μL per well of PBS. Next, 200 μL of 25 μg/mL CS-1 peptide solution (equivalent to 5 μg/well) was added per well and the plate was incubated at 37° C. for 2 hours and then overnight at 4° C.
2.—Jurkat Cell Line: Culture and Fluorescent Labelling
Jurkat cells were kept in culture at a density comprised between 2×10^5 and 1.5×10^6 cells/mL in 1640 RPMI medium (Gibco 21875-034) enriched with 10% fetal calf serum (FCS, Gibco 10270-106).
50×10^6 cells were extracted, centrifuged (1200 rpm, 10 min, room temperature) and the medium was discarded. Cells were resuspended in 5 mL of RPMI, and 10 μL of a 1 mM solution of the fluorophore calceine.AM (Molecular Probes, C-3100) was added. The suspension was incubated for 30 min at 37° C. in the darkness, with occasional shaking. 40 mL of RPMI was added to stop the labelling and the suspension was centrifuged (1200 rpm, 10 min, room temperature). The medium was discarded, and the labelled cells were washed with 40 mL of RPMI in order to remove the unincorporated fluorescent probe. Finally, cells were resuspended in RPMI enriched with 10% FCS to obtain a 8×10^6 cells/mL suspension.
The plate previously prepared was twice washed with 200 μL per well of PBS and blocked with 200 μL of 1% BSA for at least 1 hour at room temperature.
The products to be tested were dissolved in dimethylsulfoxide at a concentration of 10 mM and dilutions thereof were prepared in RPMI medium enriched with 10% FCS. The products were preincubated with the Jurkat cells at 37° C. for 30 minutes, at a product concentration comprised between 1 nM and 10 μM, at a cell density of 4×10^6 cells/mL and at a maximal dimethylsulfoxide concentration of 0.1%.
100 μL of the resulting cell-product supsension was added per well (cellular density 4×10^5 cells/well). The product was omitted in the control wells and cells or CS-1 were omitted in the blanks. The plate was incubated for 60 min at room temperature in the-darkness, was twice washed with 200 μL per well of RPMI and then 100 μL of PBS was added. The plate was read with a fluorescence reader at an excitation wavelength of 485 nm and at an emission wavelength of 530 nm.
Maximal adhesion (100%) was determined as the average of the fluorescence intensities (FI) of the control wells, and the minimal adhesion as the average FI of the blanks. The adhesion inhibition percentage was determined using the following formula: [formula]
The results are expressed as the IC50 values (concentration producing 50% inhibition). IC50 values were calculated by testing at least 6 product concentrations and by adjusting the inhibition percentages to a dose-response curve of variable slope.

pIC50: −log10 of the molar value.

Here are results for 14 molecules from patent publication US20050143391A1, “Heterocyclic amides with alpha-4 integrin antagonist activity” (J. Uriach Y Compañia S.A., priority 2002, published 2005).

T1 sequence (P13612 34-1032): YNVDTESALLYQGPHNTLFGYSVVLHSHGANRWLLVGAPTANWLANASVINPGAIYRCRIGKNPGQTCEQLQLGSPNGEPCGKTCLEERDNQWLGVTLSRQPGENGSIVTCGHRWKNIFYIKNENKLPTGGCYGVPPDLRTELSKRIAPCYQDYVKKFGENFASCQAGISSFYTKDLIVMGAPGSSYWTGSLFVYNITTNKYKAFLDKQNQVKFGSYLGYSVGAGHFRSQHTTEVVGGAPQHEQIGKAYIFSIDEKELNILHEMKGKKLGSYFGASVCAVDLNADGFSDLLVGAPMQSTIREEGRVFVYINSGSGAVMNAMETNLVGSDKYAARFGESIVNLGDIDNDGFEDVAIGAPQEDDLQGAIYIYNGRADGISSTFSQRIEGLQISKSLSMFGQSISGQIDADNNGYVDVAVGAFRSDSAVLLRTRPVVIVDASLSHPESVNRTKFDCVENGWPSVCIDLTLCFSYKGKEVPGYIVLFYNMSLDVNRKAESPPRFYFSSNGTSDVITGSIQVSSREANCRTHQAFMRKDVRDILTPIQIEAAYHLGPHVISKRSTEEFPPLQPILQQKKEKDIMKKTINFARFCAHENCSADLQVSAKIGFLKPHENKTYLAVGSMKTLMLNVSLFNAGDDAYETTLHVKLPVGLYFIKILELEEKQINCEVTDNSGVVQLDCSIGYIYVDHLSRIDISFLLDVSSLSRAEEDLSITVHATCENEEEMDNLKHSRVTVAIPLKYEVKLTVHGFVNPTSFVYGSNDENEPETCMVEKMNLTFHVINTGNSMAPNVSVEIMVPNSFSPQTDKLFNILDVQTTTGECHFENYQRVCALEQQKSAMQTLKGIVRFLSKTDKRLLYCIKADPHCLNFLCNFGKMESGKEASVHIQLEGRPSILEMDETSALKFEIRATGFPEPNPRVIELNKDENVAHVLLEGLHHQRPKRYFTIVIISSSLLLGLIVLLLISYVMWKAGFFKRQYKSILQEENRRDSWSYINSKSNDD
T1 sequence (P05556 21-798): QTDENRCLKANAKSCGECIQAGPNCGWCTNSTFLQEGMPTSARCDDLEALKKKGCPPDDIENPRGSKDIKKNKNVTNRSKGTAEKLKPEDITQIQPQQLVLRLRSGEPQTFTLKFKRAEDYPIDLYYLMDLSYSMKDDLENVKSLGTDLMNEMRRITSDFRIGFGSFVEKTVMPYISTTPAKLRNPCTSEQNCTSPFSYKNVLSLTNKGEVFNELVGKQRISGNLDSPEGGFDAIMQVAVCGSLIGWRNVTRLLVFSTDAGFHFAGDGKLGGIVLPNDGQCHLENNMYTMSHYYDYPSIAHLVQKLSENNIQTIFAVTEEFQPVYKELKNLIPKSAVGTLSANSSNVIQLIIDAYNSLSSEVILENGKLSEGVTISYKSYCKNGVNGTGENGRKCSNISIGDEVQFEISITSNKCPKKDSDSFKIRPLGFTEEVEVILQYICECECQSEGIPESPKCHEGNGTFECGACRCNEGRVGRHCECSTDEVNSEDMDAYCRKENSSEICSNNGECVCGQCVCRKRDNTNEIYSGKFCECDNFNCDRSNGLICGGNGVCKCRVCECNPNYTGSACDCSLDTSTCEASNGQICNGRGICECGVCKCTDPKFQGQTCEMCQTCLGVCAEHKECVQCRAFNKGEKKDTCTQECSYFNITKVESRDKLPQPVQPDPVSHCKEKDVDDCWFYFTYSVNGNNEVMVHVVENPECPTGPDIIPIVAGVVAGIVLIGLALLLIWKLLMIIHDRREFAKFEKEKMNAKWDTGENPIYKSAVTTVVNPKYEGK

The term pIC50 denotes −log10 of the IC50, conventionally taken in molar units. Low readings indicate a high IC50, high ones a low IC50. Turning to `Cc1ccc(C)n1CC1CCN(C(=O)CC[C@H](NC(=O)[C@@H]2CCCN2S(=O)(=O)c2cc(Cl)cc(Cl)c2)C(=O)O)CC1` [Example 82, (2S)-2-[1-(3,5-Dichlorophenylsulfonyl)-L-prolylamino]-5-[4-(2,5-dimethylpyrrol-1-ylmethyl)piperidin-1-yl]-5-oxopentanoic Acid], the pIC50 is 7.05.

As for `O=C(O)[C@H](CCC(=O)N1CCC(CN2Cc3ccccc3C2=O)CC1)NC(=O)[C@@H]1CCCN1S(=O)(=O)c1cc(Cl)cc(Cl)c1` [Example 54, (2S)-5-[4-[(1-Oxoisoindolin-2-yl)methyl]piperidin-1-yl]-2-[1-(3,5-dichlorophenylsulfonyl)-L-prolylamino]-5-oxopentanoic Acid], the pIC50 is 7.66.

For `CN1CCN(C(=O)OCCC2CCN(C(=O)NC[C@H](NC(=O)[C@@H]3CCCN3S(=O)(=O)c3cc(Cl)cc(Cl)c3)C(=O)O)CC2)CC1` [Example 116, (2S)-2-[1-(3,5-Dichlorophenylsulfonyl)-L-prolyl]amino-3-[[4-[2-[(4-methylpiperazin-1-yl)carbonyloxy]ethyl]piperidin-1-ylcarbonyl]amino]propionic Acid], the pIC50 is 8.01. Against the preceding molecule, the pIC50 is 0.35 log units higher.

`CCN(CC)CCC1CCN(C(=O)CC[C@H](NC(=O)[C@@H]2CCCN2S(=O)(=O)c2cc(Cl)cc(Cl)c2)C(=O)O)CC1` [Example 91, (2S)-2-[1-(3,5-Dichlorophenylsulfonyl)-L-prolylamino]-5-[4-[2-(diethylamino)ethyl]piperidin-1-yl]-5-oxopentanoic Acid] showed a pIC50 of 7.19. Compared with the last molecule, the pIC50 is 0.82 log units lower.

In turn, `O=C(O)[C@H](CCC(=O)N1CCC(CN2CCCC2=O)CC1)NC(=O)[C@@H]1CCCN1S(=O)(=O)c1cc(Cl)cc(Cl)c1` [Example 71, (2S)-2-[1-(3,5-Dichlorophenylsulfonyl)-L-prolylamino]-5-[4-(2-oxopyrrolidin-1-ylmethyl)piperidin-1-yl]-5-oxopentanoic Acid] had a pIC50 of 7.43.

In the case of `CCc1nc2cnccc2n1CC1CCN(C(=O)NC[C@H](NC(=O)[C@@H]2CCCN2S(=O)(=O)c2cc(Cl)cc(Cl)c2)C(=O)O)CC1` [Example 123, Lithium (2S)-2-[1-(3,5-dichlorophenylsulfonyl)-L-prolyl]amino-3-[[4-(2-ethylimidazo[4,5-c]pyridin-1-ylmethyl)piperidin-1-ylcarbonyl]amino]propionate], the pIC50 was 8.34.

As for `O=C(O)[C@H](CCC(=O)N1CCC(CCOC(=O)N2CCCC2)CC1)NC(=O)[C@@H]1CCCN1S(=O)(=O)c1cc(Cl)cc(Cl)c1` [Example 61, (2S)-2-[1-(3,5-Dichlorophenylsulfonyl)-L-prolylamino]-5-oxo-5-[4-[2-(pyrrolidin-1-ylcarbonyloxy)ethyl]piperidin-1-yl]pentanoic Acid], the pIC50 is 8.64. This pIC50 lies 0.30 log units higher than the previous one.

In the case of `Cc1ccc(S(=O)(=O)N2CCC[C@H]2C(=O)N[C@@H](CCC(=O)N2CCC(Cn3ccnc3-c3ccccc3)CC2)C(=O)O)cc1` [Example 63, (2S)-5-Oxo-5-[4-(2-phenylimidazol-1-ylmethyl)piperidin-1-yl]-2-[1-tosyl-L-prolylamino]pentanoic Acid], the pIC50 was 6.70. Compared with the last molecule, the pIC50 is 1.94 log units lower.

Regarding `CC(C)CC(=O)NCC1CCN(C(=O)CC[C@H](NC(=O)[C@@H]2CCCN2S(=O)(=O)c2cc(Cl)cc(Cl)c2)C(=O)O)CC1` [Example 55, (2S)-2-[1-(3,5-Dichlorophenylsulfonyl)-L-prolylamino]-5-[4-[(3-methylbutanoylamino)methyl]piperidin-1-yl]-5-oxopentanoic Acid], the pIC50 was 7.24.

As for `CN(C)CCN1CCN(C(=O)CC[C@H](NC(=O)[C@@H]2CCCN2S(=O)(=O)c2cc(Cl)cc(Cl)c2)C(=O)O)CC1` [Example 84, (2S)-2-[1-(3,5-Dichlorophenylsulfonyl)-L-prolylamino]-5-[4-[2-(dimethylamino)ethyl]piperazin-1-yl]-5-oxopentanoic Acid], the pIC50 is 8.22.

As for `Cc1nc2cnccc2n1CC1CCN(C(=O)CC[C@H](NC(=O)[C@@H]2CCCN2S(=O)(=O)c2cc(Cl)cc(Cl)c2)C(=O)O)CC1` [Example 72, (2S)-2-[1-(3,5-Dichlorophenylsulfonyl)-L-prolylamino]-5-[4-(2-methylimidazo[4,5-c]pyridin-1-ylmethyl)piperidin-1-yl]-5-oxopentanoic Acid], the pIC50 is 7.82.

As to `O=C(O)[C@H](CCC(=O)N1CCC(CCOC(=O)N2CCN(c3ccccc3)CC2)CC1)NC(=O)[C@@H]1CCCN1S(=O)(=O)c1cc(Cl)cc(Cl)c1` [Example 117, (2S)-2-[1-(3,5-Dichlorophenylsulfonyl)-L-prolylamino]-5-oxo-5-[4-[2-(4-phenylpiperazin-1-ylcarbonyloxy)ethyl]piperidin-1-yl]pentanoic Acid], the negative logarithm of the IC50 (pIC50) is 6.87.

As to `CCc1nc2cnccc2n1CC1CCN(C(=O)CC[C@H](NC(=O)[C@@H]2CCCN2S(=O)(=O)c2cc(Cl)cc(Cl)c2)C(=O)O)CC1` [Example 85, (2S)-2-[1-(3,5-Dichlorophenylsulfonyl)-L-prolylamino]-5-[4-(2-ethylimidazo[4,5-c]pyridin-1-ylmethyl)piperidin-1-yl]-5-oxopentanoic Acid], the pIC50 is 7.92.

With `CN(C)CC1CCN(C(=O)NC[C@H](NC(=O)[C@@H]2CCCN2S(=O)(=O)c2cc(Cl)cc(Cl)c2)C(=O)O)CC1` [Example 95, (2S)-2-[1-(3,5-Dichlorophenylsulfonyl)-L-prolyl]amino-3-[[4 (dimethylaminomethyl)piperidin-1-ylcarbonyl]amino]propionic Acid], the pIC50 was 8.31.
